Measured values reported in ChEMBL document CHEMBL1129189 (Bioorg Med Chem Lett, 1996).

Key:
[1] = biological target: T1, Retinoic acid receptor beta (Homo sapiens, UniProt P10826); experiment: Compound was tested for functional activity in CV-1 cells transfected with an expression vector for retinoic acid receptor beta using transactivation assay; assay type: cell-based
T1 sequence (P10826 whole entry): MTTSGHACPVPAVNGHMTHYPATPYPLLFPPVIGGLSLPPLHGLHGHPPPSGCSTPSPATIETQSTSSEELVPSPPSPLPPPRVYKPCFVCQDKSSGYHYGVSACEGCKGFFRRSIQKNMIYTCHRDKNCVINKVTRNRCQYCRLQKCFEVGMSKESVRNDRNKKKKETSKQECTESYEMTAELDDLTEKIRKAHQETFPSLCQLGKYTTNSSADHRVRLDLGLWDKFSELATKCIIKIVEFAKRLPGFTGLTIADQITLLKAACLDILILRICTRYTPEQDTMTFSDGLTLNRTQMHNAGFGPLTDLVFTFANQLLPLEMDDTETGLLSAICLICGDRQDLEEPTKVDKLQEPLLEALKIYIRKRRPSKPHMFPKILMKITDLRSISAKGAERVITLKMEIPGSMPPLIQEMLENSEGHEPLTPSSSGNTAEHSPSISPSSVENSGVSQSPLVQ

[2] = biological target: T2, Retinoic acid receptor gamma (Homo sapiens, UniProt P13631); experiment: (§1) Compound was tested for binding affinity against retinoic acid receptor using 5 nM of [3H]RA as a radioligand in baculovirus expressed receptor
T2 sequence (P13631 whole entry): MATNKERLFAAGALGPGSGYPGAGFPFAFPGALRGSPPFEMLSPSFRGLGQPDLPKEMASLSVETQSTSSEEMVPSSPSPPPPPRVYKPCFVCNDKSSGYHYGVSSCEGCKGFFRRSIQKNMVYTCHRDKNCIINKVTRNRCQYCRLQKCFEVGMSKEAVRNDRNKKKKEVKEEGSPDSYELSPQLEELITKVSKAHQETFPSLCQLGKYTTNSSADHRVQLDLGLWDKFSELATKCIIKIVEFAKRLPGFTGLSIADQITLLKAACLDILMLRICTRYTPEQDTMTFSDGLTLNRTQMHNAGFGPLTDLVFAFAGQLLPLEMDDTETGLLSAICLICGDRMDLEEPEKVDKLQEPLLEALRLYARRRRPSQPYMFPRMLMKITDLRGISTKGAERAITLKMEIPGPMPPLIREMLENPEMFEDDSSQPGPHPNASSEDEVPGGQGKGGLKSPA

[3] = biological target: T1, Retinoic acid receptor beta; experiment: as §1
[4] = biological target: T3, Retinoic acid receptor alpha (Homo sapiens, UniProt P10276); experiment: as §1
T3 sequence (P10276 whole entry): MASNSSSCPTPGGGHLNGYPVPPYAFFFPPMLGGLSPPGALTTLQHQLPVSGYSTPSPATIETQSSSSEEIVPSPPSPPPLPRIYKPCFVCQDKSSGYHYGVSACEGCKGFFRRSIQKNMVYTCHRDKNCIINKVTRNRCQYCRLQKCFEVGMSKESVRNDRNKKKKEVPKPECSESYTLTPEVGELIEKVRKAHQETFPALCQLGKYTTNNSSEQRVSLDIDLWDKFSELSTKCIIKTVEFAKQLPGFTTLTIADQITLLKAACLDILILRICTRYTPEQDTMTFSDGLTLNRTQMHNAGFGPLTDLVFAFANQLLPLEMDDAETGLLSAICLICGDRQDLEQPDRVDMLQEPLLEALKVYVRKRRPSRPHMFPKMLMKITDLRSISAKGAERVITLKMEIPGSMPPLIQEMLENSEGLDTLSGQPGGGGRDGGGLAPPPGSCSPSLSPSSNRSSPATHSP

[5] = biological target: T2, Retinoic acid receptor gamma; experiment: Compound was tested for functional activity in CV-1 cells transfected with an expression vector for retinoic acid receptor gamma using transactivation assay; assay type: cell-based
[6] = biological target: T4, Retinoic acid receptor RXR-gamma (Homo sapiens, UniProt P48443); experiment: Compound was tested for functional activity in CV-1 cells transfected with an expression vector for retinoid X receptor gamma using transactivation assay; assay type: cell-based
T4 sequence (P48443 whole entry): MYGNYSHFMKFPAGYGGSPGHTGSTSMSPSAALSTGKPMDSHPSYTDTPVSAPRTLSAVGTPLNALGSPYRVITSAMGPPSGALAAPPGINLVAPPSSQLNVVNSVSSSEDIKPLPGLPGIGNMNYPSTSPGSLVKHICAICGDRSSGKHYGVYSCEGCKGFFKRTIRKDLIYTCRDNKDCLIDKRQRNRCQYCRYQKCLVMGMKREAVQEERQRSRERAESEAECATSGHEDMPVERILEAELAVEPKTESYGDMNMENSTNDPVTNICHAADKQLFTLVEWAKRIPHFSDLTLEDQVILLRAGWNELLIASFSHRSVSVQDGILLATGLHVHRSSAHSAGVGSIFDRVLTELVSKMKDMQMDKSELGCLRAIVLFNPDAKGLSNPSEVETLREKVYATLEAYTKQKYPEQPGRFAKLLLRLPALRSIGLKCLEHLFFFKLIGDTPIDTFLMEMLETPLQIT

[7] = biological target: T5, Retinoic acid receptor RXR-beta (Homo sapiens, UniProt P28702); experiment: (§2) Compound was tested for binding affinity against retinoid X receptor using 5 nM of [3H]9-cis-RA as a radioligand in baculovirus expressed receptor
T5 sequence (P28702 whole entry): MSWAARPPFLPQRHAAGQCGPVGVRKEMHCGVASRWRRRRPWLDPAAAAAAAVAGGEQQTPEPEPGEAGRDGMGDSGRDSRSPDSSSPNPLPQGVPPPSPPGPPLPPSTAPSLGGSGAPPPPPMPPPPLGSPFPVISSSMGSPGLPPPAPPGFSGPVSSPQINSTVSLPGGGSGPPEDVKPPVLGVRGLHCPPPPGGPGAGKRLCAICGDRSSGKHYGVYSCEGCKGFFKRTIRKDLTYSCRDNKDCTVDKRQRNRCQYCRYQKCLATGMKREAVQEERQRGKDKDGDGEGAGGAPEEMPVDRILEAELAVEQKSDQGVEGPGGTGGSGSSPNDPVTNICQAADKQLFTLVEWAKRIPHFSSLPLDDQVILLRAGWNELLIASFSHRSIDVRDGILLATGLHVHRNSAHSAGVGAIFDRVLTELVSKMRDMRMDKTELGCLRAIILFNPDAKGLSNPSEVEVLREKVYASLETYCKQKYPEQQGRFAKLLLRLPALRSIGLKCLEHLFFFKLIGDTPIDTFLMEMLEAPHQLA

[8] = biological target: T4, Retinoic acid receptor RXR-gamma; experiment: as §2
[9] = biological target: T6, Retinoic acid receptor RXR-alpha (Homo sapiens, UniProt P19793); experiment: Compound was tested for functional activity in CV-1 cells transfected with an expression vector for retinoid X receptor alpha using transactivation assay; assay type: cell-based
T6 sequence (P19793 whole entry): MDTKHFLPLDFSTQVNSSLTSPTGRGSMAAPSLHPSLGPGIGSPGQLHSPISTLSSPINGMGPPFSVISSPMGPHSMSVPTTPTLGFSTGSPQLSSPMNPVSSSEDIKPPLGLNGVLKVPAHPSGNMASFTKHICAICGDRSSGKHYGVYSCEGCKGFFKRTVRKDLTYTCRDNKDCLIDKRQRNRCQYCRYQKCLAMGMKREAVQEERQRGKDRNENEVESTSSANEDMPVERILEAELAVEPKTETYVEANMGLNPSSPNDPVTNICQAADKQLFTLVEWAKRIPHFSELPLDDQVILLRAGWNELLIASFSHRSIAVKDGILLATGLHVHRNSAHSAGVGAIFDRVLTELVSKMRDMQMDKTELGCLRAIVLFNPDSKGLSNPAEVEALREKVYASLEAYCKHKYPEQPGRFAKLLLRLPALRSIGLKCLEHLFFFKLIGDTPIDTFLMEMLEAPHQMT

[10] = biological target: T5, Retinoic acid receptor RXR-beta; experiment: Compound was tested for functional activity in CV-1 cells transfected with an expression vector for retinoid X receptor beta using transactivation assay; assay type: cell-based
[11] = biological target: T6, Retinoic acid receptor RXR-alpha; experiment: Compound was tested for binding affinity against retinoid X receptor using 5 nM of [3H]-9-cis-RA as a radioligand in baculovirus expressed receptor
[12] = biological target: T3, Retinoic acid receptor alpha; experiment: Compound was tested for functional activity in CV-1 cells transfected with an expression vector for retinoic acid receptor alpha using transactivation assay; assay type: cell-based

EC50 [1] [nM]	Kd [2] [nM]	Kd [3] [nM]	Kd [4] [nM]	EC50 [5] [nM]	EC50 [6] [nM]	Kd [7] [nM]	Kd [8] [nM]	EC50 [9] [nM]	EC50 [10] [nM]	Kd [11] [nM]	EC50 [12] [nM]	Compound
> 1000	> 1000	> 1000	> 1000	> 1000	> 1000	> 1000	> 1000	> 1000	> 1000	> 1000	> 1000	CC(=CC(=O)O)/C=C/C1CC1(C)c1cc2c(cc1C)C(C)(C)CCC2(C)C (centres undefined)
> 1000	> 1000	> 1000	> 1000	> 1000	71	56	42	130	100	71	> 1000	CC(/C=C/C1CC1(C)c1cc2c(cc1C)C(C)(C)CCC2(C)C)=C\C(=O)O (centres undefined)
